# Laboratory results from patent US5324648A, “Substituted isocoumarins as serine protease inhibitors and anti-inflammatory agents” (Georgia Tech Research Corporation, priority 1992, dated 1994).
# Where two headings read alike, the source gives them in different places.
# Columns and labels:
# rat granule tryptase = assay: Inhibition of rat granule tryptase; assay type: biochemical; settings: Table XIV
# Description: (§1) ^a Inhibition was measured at 0.1M Hepes, 0.5M NaCl, pH 7.5 buffer,
# (§2) 10% Me2 SO and 25° C. Suc--Phe--Leu--PheSBzl (0.14 mM) and
# (§3) ZGly--ArgSBzl (0.06 mM) were used to measure chymase and tryptase activit
# rat granule chymase [1] = assay: Reactivation of inhibited rat granule chymase; assay type: biochemical; settings: [I] 39 μM; +NH2OH 0.36M
# Description: (§4) ^a Inhibition was performed at 0.1M Hepes, 0.5M NaCl, pH 7.5 buffer,
# (§5) 10% Me2 SO and 25° C. Reactivation was carried out in the
# presence of 0.36M of NH2 OH, and occurred immediately after the […]
# chymotrypsin [2] = target: T1, chymotrypsin (Bos taurus, UniProt P00766); assay: Inactivation of chymotrypsin; assay type: biochemical, bovine; settings: pH 7.5, 25° C, read-out: kobs/[I]
# cathepsin G = target: T2, cathepsin G (Homo sapiens, UniProt P08311); assay: Inactivation of cathepsin G; assay type: biochemical
# T2 construct: from tissue; host or cells: human leukocytes
# T2 sequence (P08311 21-255): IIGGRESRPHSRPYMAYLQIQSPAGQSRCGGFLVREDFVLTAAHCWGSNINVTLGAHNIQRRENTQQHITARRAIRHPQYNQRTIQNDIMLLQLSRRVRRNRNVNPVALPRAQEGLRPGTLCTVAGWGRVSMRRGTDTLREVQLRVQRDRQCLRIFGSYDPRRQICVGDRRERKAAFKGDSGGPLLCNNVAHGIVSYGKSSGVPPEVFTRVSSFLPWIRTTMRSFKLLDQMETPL
# chymotrypsin [3] = target: T1, chymotrypsin; assay: Reactivation of inhibited chymotrypsin; assay type: biochemical, bovine
# Description: as §4, §5
# presence of 0.36M of NH2 OH, and occurred immediately after the
# ^b Enzyme activity was measured after two days.
# rat granule chymase [4] = assay: Inhibition of rat granule chymase; assay type: biochemical; settings: Table XIV, not time dependent
# Description: as §1, §2, §3
# human skin tryptase = assay: Inhibition of human skin tryptase; assay type: biochemical; settings: Table IX
# Description: Inactivation rates of serine proteases by substituted isocoumarins were measured by the incubation method. An aliquot of inhibitor (25 or 50 μl) in Me2 SO was added to a buffered enzyme solution (0.01-2.3 μM) to initiate the inactivation. Aliquots (50 μl) were withdrawn at various intervals and the residual enzymatic activity was measured. Me2 SO concentration in the reaction mixture was 8-12% (v/v). 0.1 Hepes, 0.01M CaCl2, pH 7.5 buffer was utilized for trypsin and coagulation enzymes. 0.1M Hepes, 0.5M NaCl, pH 7.5 was utilized for other serine proteases. The inhibitor concentrations are shown in all the tables. Peptide thioesters or peptide nitroanilides with appropriate sequence were used as substrates for various serine proteases. All peptide thioester hydrolysis rates were measured with assay mixtures containing 4,4'-dithiodipyridine (ε324 =19800M^-1 cm^-1; Grasetti & Murray, Arch. Biochem. Biophys. 119, pp 41-49 (1967)). Peptide 4-nitroanilide nitroanilide hydrolysis was measured at 410 nm (ε410 =8800M^-1 cm^-1; Erlanger et al., Arch. Biochem. Biophys. 95, pp 271-278 (1961)). First order inactivation rate constant (kobs) were obtained from plots of ln (vt /vo) vs time, and the correlation coefficients were greater than 0.98.
# ^a Inhibition rates were measured in 0.1M Hepes, 0.01M CaCl2, pH
# 7.5 buffer for human plasmin; 25 mM Phosphate, 0.5M NaCl, 1 mM EDTA, pH
# 7.5 buffer for rat skin tryptase and 0.1M Hepes, 0.5M NaCl, pH 7.5 for
# human lung tryptase, human skin tryptase and rt-PA. All enzymes were
# assayed with ZArg-SBzl (0.07 mM) in the presence of 4,4dithiodipyridine
# (0.33 mM). Reaction mixtures contained 8% Me2 SO and assays were […]
# [5] = target: recombinant human tissue plasminogen activator (Homo sapiens, UniProt P00750); assay: Inactivation rate of recombinant human tissue plasminogen activator; assay type: biochemical; settings: pH 7.5, Table IX; pH 7.5, 25° C; [I] 3.5-5.0 μM; read-out: kobs/[I]
# Summary of the method: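 Incubation method: enzyme mixed with inhibitor in Me2SO (8–12% v/v) in 0.1M Hepes, 0.5M NaCl, pH 7.5; aliquots withdrawn over time for residual activity with ZArg-SBzl (0.07 mM) plus 4,4'-dithiodipyridine (0.33 mM). kobs taken from ln(vt/vo) versus time plots.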
# human thrombin = target: T3, human thrombin (Homo sapiens, UniProt P00734); assay: Inactivation rate of human thrombin; assay type: biochemical; settings: Table VIII; pH 7.5, 25° C; [I] 1.2-54 μM; read-out: kobs/[I]
# T3 construct: human thrombin
# Summary of the method: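 Incubation method: enzyme (0.01-2.3 μM) mixed with inhibitor in 0.1M Hepes, 0.01M CaCl2, pH 7.5, 8% Me2SO, 25° C; residual activity sampled over time with peptide thioester or 4-nitroanilide substrates. kobs from ln(vt/vo) vs time plots.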
# human plasmin = target: T4, human plasmin (Homo sapiens, UniProt P00747); assay: Inactivation rate of human plasmin; assay type: biochemical; settings: Table IX; 0.01M CaCl2, pH 7.5, 25° C; [I] 8.3-41 μM; read-out: kobs/[I]
# T4 construct: human plasmin; from tissue; host or cells: human plasma
# [6] = target: T5, human leukocyte elastase (HLE) (Homo sapiens, UniProt P08246); assay: Inactivation of human leukocyte elastase (HLE); assay type: biochemical; settings: Table X; pH 7.5, 25° C; [I] 2.1-42 μM; read-out: kobs/[I]
# T5 construct: from tissue; host or cells: human leukocytes (from the name)
# T5 sequence (P08246 30-267): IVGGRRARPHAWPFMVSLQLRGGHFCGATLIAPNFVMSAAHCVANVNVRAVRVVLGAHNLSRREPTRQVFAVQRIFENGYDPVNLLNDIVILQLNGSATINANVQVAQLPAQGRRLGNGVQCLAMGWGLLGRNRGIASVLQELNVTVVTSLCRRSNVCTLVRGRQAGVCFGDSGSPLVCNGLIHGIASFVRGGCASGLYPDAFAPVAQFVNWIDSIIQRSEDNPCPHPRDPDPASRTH
# bovine trypsin = target: T6, bovine trypsin (Bos taurus, UniProt P00760); assay: Inactivation rate of bovine trypsin; assay type: biochemical; settings: Table VIII; pH 7.5, 25° C; [I] 1.1-4.6 μM; read-out: kobs/[I]
# T6 sequence (P00760 24-246): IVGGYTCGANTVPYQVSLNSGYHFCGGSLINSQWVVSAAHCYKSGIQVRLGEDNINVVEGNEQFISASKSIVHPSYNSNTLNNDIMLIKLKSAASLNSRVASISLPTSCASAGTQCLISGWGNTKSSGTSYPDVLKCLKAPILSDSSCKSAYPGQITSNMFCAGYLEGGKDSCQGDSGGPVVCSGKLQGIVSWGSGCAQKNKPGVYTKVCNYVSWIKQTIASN
# Summary of the method: (§6)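 Incubation method: isocoumarin inhibitor in Me2SO added to enzyme (0.01-2.3 μM) in 0.1M Hepes, 0.01M CaCl2, pH 7.5, 8-12% Me2SO, 25° C; aliquots withdrawn over time for residual activity against peptide thioester or 4-nitroanilide substrates. kobs from ln(vt/vo) vs time.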
# [7] = Spontaneous hydrolysis in Hepes buffer; assay type: physicochemical; settings: 0.1 Hepes, 0.5M NaCl, pH 7.5, 9% Me2SO, 25° C
# Description: ^a Conditions were 0.1 Hepes, 0.5M NaCl, pH 7.5 and 9% Me2 SO at
# 25° C. Spontaneous hydrolysis rates were measured
# spectrophotometrically by monitoring the decrease in absorbance due to th
# isocoumarin ring system (wavelength 335-380 nm) using the firstorder rate
# human lung tryptase = assay: Inactivation rate of human lung tryptase; assay type: biochemical; settings: Table IX; pH 7.5, 25° C; [I] 0.42-0.47 μM
# Summary of the method: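 Incubation method in 0.1M Hepes, 0.5M NaCl, pH 7.5, 8% Me2SO, 25° C; inhibitor added to enzyme, aliquots withdrawn over time for residual activity. Substrate ZArg-SBzl (0.07 mM) with 4,4'-dithiodipyridine (0.33 mM). kobs from ln(vt/vo) vs time plots.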
# [8] = target: T7, porcine pancreatic elastase (PPE) (Sus scrofa, UniProt P00772); assay: Inactivation of porcine pancreatic elastase (PPE); assay type: biochemical; settings: Table X; after 20 min incubation
# T7 construct: from tissue; host or cells: porcine pancreas (from the name)
# bovine thrombin = target: T8, bovine thrombin (Bos taurus, UniProt P00735); assay: Inactivation rate of bovine thrombin; assay type: biochemical; settings: Table VIII; pH 7.5, 25° C; [I] 1.2-54 μM; read-out: kobs/[I]
# T8 construct: bovine thrombin
# Summary of the method: as §6
# rat skin tryptase = target: T9, rat skin tryptase (Rattus norvegicus, UniProt P27435); assay: Inactivation rate of rat skin tryptase; assay type: biochemical; settings: pH 7.5, Table IX; pH 7.5, 25° C; [I] 0.42-0.51 μM; read-out: kobs/[I]
# T9 construct: from tissue; host or cells: rat skin
# Summary of the method: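 Rat skin tryptase incubated with isocoumarin inhibitor in 25 mM phosphate, 0.5 M NaCl, 1 mM EDTA, pH 7.5, 8-9% Me2SO, 25 °C; aliquots withdrawn over time for residual activity on ZArg-SBzl (0.07 mM) with 4,4'-dithiodipyridine (0.33 mM). First-order kobs from ln(vt/vo) versus time.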
# human factor Xa = target: T10, human factor Xa (Homo sapiens, UniProt P00742); assay: Inactivation rate of human factor Xa; assay type: biochemical; settings: Table VIII; pH 7.5, 25° C; [I] 3.6-44 μM; read-out: kobs/[I]
# T10 construct: human factor Xa
# Summary of the method: as §6
# human factor XIIa = target: T11, human factor XIIa (Homo sapiens, UniProt P00748); assay: Inactivation rate of human factor XIIa; assay type: biochemical; settings: Table VIII; pH 7.5, 25° C; [I] 3.6-4.9 μM; read-out: kobs/[I]
# T11 construct: human factor XIIa
# T11 sequence (P00748 373-615 limits assumed): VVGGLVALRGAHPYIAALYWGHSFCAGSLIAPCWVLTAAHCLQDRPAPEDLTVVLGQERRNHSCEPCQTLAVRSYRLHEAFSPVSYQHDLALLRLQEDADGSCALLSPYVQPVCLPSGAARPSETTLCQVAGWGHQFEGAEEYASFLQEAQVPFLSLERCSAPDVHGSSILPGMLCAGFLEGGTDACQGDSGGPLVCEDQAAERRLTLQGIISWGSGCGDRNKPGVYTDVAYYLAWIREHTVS
# T11 sequence (P00748 20-372 partner limits assumed): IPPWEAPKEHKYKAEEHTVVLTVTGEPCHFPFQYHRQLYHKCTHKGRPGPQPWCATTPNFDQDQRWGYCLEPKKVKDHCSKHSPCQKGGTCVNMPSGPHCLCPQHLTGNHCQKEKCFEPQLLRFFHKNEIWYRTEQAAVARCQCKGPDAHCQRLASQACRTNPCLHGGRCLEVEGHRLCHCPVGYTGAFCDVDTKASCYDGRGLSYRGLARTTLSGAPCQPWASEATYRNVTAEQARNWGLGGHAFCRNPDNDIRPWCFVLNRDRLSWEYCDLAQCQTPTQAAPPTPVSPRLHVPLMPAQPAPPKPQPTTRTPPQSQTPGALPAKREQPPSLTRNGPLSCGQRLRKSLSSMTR
# Summary of the method: as §6
# [9] = [I] 39 μM, in buffer, after two days
# [10] = [I] 78 μM, in buffer, after two days
# recombinant human tissue plasminogen activator, sequence (P00750 36-562): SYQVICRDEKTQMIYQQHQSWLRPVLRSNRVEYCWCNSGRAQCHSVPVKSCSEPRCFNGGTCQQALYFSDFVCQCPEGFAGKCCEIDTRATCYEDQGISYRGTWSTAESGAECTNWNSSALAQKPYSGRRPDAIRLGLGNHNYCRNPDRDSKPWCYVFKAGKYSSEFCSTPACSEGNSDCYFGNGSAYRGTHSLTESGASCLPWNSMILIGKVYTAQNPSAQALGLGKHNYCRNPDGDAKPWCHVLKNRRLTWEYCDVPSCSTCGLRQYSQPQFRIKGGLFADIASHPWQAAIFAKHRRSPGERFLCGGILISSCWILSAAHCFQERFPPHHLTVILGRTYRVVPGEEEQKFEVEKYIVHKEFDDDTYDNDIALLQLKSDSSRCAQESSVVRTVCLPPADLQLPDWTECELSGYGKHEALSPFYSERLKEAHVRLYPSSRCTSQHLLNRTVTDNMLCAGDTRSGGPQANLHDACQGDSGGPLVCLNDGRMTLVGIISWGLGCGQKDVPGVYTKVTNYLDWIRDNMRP
# T9 sequence (P27435 29-273): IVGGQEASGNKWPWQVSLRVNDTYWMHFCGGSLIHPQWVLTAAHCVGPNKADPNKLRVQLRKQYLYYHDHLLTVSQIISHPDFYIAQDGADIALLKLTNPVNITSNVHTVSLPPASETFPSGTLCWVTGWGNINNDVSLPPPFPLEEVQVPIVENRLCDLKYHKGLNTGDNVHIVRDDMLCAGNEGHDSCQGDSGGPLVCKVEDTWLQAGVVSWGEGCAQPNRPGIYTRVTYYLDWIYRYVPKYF
# T4 sequence (P00747 581-810 limits assumed): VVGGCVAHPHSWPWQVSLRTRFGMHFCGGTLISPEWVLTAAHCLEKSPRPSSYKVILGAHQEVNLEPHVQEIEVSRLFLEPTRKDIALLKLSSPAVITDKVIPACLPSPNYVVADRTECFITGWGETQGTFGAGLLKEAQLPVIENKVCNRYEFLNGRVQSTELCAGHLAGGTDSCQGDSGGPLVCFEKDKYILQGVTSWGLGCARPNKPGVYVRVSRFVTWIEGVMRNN
# T4 sequence (P00747 97-580 partner limits assumed): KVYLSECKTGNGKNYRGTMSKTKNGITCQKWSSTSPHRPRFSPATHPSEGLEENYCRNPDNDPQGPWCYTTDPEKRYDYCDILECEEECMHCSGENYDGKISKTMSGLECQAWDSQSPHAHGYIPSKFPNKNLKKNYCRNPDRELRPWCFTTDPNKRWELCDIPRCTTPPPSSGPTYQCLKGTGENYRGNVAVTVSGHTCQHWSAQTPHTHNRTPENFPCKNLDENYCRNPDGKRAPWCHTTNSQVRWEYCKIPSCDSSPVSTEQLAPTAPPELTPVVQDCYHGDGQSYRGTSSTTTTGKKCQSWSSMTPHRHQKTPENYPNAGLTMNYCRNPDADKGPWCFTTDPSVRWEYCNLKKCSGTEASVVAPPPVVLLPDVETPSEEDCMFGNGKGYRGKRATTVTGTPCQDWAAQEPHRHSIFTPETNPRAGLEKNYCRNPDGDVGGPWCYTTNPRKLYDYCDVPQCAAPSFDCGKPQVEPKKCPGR
# T7 sequence (P00772 27-266): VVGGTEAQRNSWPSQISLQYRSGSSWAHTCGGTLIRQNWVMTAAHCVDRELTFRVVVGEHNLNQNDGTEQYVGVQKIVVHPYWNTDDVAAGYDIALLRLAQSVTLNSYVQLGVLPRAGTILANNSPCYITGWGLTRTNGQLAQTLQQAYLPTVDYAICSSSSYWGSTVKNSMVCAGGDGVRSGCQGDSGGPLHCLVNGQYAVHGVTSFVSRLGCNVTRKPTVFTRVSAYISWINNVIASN
# T10 sequence (P00742 235-488 limits assumed): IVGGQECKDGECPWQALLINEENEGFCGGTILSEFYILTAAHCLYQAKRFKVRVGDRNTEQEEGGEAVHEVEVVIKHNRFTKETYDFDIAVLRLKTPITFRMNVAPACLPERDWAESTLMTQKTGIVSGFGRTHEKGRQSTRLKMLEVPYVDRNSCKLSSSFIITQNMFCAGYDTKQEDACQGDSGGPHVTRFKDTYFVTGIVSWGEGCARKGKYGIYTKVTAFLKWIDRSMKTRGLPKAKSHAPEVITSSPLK
# T10 sequence (P00742 41-179 partner limits assumed): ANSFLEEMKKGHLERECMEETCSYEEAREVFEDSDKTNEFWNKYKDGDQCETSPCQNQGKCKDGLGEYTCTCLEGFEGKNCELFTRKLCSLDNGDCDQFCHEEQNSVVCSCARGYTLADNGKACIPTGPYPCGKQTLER
Structure (SMILES),% of Enzyme Activity Reactivated (rat granule chymase [1]),"% of Enzyme Activity Reactivated (chymotrypsin [3]; [I] 39 μM, +NH2OH 0.36M) [%]",% of Enzyme Activity Reactivated (chymotrypsin [3]; [9]) [%],"% of Enzyme Activity Reactivated (chymotrypsin [3]; [I] 78 μM, +NH2OH 0.36M) [%]",% of Enzyme Activity Reactivated (chymotrypsin [3]; [10]) [%],kinact/KI [5] [M⁻¹ s⁻¹],kinact/KI (human thrombin) [M⁻¹ s⁻¹],kinact/KI (bovine trypsin) [M⁻¹ s⁻¹],t1/2 for spontaneous hydrolysis [7] [h],kobs/[I] (human lung tryptase),kinact/KI (bovine thrombin) [M⁻¹ s⁻¹],kinact/KI (rat skin tryptase) [M⁻¹ s⁻¹],also measured
O=C(CCCC[C@@H]1SC[C@@H]2NC(=O)N[C@@H]21)NCCCCCC(=O)Nc1ccc2c(Cl)c(OCCc3ccccc3)oc(=O)c2c1 [7-(6-biotinylaminocaproyl)amino-4-chloro-3-(2-phenylethoxy)isocoumarin],30-50%,50,6,40,0,–,–,–,–,–,–,–,"kobs/[I] (rat granule tryptase; [I] 0.078 mM): 6 to 12 M⁻¹ s⁻¹; kinact/KI (chymotrypsin [2]; Table XIII, [I] 20-400 μM): 1080 M⁻¹ s⁻¹; inhibition (cathepsin G; Table XIII, [I] 75-400 μM): 13%; % of inhibition (rat granule chymase [4]; [I] 0.078 mM): 30-50%"
O=C(CCCC[C@@H]1SC[C@@H]2NC(=O)N[C@@H]21)Nc1ccc2c(Cl)c(OCCc3ccccc3)oc(=O)c2c1 [7-biotinylamino-4-chloro-3-(2-phenylethoxy)isocoumarin],100%,85,51,79,7,–,–,–,–,–,–,–,kobs/[I] (rat granule tryptase; [I] 0.2 mM): 2 to 3 M⁻¹ s⁻¹; % of inhibition (rat granule chymase [4]; [I] 0.2 mM): 10-20%
"N=C(N)SCCCOc1oc(=O)c2cc(NC(=O)NCc3ccccc3)ccc2c1Cl [PhCH2 NHCONH-CiTPrOIC, 7-(benzylcarbamoylamino)-4-chloro-3-(3-isothiureidopropoxy)isocoumarin]",–,–,–,–,–,18000,700,51000,2.47,"190,000 M^-1 s^-1",420,270000,"percentage of inhibition (human skin tryptase; not time dependent, at 0.34-5.0 μM): 68%; kinact/KI (chymotrypsin [2]; Table X, [I] 0.9-43 μM): 13400 M⁻¹ s⁻¹; kinact/KI (human plasmin): 5120 M⁻¹ s⁻¹; kinact/KI [6]: 250 M⁻¹ s⁻¹; kinact/KI (cathepsin G; Table X, pH 7.5, 25° C, [I] 33-46 μM, read-out: kobs/[I]): 50 M⁻¹ s⁻¹; percentage of inhibition [8]: 9%"
"N=C(N)SCCCOc1oc(=O)c2cc(NC(=O)Nc3ccccc3)ccc2c1Cl [PhNHCONH-CiTPrOIC, 7-(phenylcarbamoylamino)-4-chloro-3-(3-isothiureidopropoxy)isocoumarin]",–,–,–,–,–,19000,1840,63000,2.47,"140,000 M^-1 s^-1",970,250000,"kobs/[I] (human skin tryptase; pH 7.5, 25° C, [I] 0.34-0.39 μM): 38,000 M^-1 s^-1; kinact/KI (human factor Xa): 50 M⁻¹ s⁻¹; kinact/KI (human factor XIIa): 7720 M⁻¹ s⁻¹"
